From ChEMBL document CHEMBL1201862, “PubChem BioAssay data set” (2004)
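Cells were grown in 96-well plates and exposed to each compound for 48 hours at five concentrations; endpoints were interpolated linearly between bracketing concentrations, or set to the highest concentration if not reached. The concentration for 50% growth inhibition is given as GI50.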 Activity calls are given as the source filed them. No stated cut-off is given here; in the data, active = GI50 up to about 1.1 µM and inactive = higher.

Legend:
Experiment in all cases: inhibition of tumour cell growth, NCI panel, 48 h
HCC 2998 = tested on: HCC 2998
OVCAR-4 = tested on: OVCAR-4
SNB-75 = tested on: SNB-75
U-251 = tested on: U-251
LOX IMVI = tested on: LOX IMVI
SNB-19 = tested on: SNB-19
KM12 = tested on: KM12
OVCAR-3 = tested on: OVCAR-3
SK-OV-3 = tested on: SK-OV-3
SW-620 = tested on: SW-620
HL-60 = tested on: HL-60
UACC-62 = tested on: UACC-62
SF-539 = tested on: SF-539
NCI-H460 = tested on: NCI-H460
SK-MEL-28 = tested on: SK-MEL-28
UO-31 = tested on: UO-31
SF-295 = tested on: SF-295
DU-145 = tested on: DU-145
NCI/ADR-RES = tested on: NCI/ADR-RES
MCF7 = tested on: MCF7

| SMILES | GI50 (HCC 2998) | GI50 (OVCAR-4) | GI50 (SNB-75) | GI50 (U-251) | GI50 (LOX IMVI) | GI50 (SNB-19) | GI50 (KM12) | GI50 (OVCAR-3) | GI50 (SK-OV-3) | GI50 (SW-620) | GI50 (HL-60) | GI50 (UACC-62) | GI50 (SF-539) | GI50 (NCI-H460) | GI50 (SK-MEL-28) | GI50 (UO-31) | GI50 (SF-295) | GI50 (DU-145) | GI50 (NCI/ADR-RES) | GI50 (MCF7) |
| --- | --- | --- | --- | --- | --- | --- | --- | --- | --- | --- | --- | --- | --- | --- | --- | --- | --- | --- | --- | --- |
| CCC(O)(c1ccc(OC)cc1)C(c1ccc(OCc2ccccc2)cc1)c1ccc(OCc2ccccc2)cc1 (stereo not given) | > 100 µM (inactive) | > 100 µM (inactive) | > 100 µM (inactive) | > 100 µM (inactive) | > 100 µM (inactive) | > 100 µM (inactive) | > 100 µM (inactive) | > 100 µM (inactive) | > 100 µM (inactive) | > 100 µM (inactive) | > 100 µM (inactive) | > 100 µM (inactive) | > 100 µM (inactive) | > 100 µM (inactive) | > 100 µM (inactive) | > 100 µM (inactive) | > 100 µM (inactive) |  |  |  |
| O=C1CCSSCCC(=O)Nc2ccccc2N1 |  | > 100 µM (inactive) |  | > 100 µM (inactive) | > 100 µM (inactive) | > 100 µM (inactive) | > 100 µM (inactive) | > 100 µM (inactive) | > 100 µM (inactive) | > 100 µM (inactive) | > 100 µM (inactive) | > 100 µM (inactive) | > 100 µM (inactive) | > 100 µM (inactive) | > 100 µM (inactive) | > 100 µM (inactive) | > 100 µM (inactive) | > 100 µM (inactive) | > 100 µM (inactive) |  |
| CO[C@H](c1ccccc1)[C@H](O)[C@](O)(c1ccccc1)P(=O)(OC)OC | > 100 µM (inactive) | > 100 µM (inactive) | > 100 µM (inactive) | > 100 µM (inactive) | > 100 µM (inactive) | > 100 µM (inactive) | > 100 µM (inactive) | > 100 µM (inactive) | > 100 µM (inactive) | > 100 µM (inactive) | > 100 µM (inactive) | > 100 µM (inactive) | > 100 µM (inactive) | > 100 µM (inactive) | > 100 µM (inactive) | > 100 µM (inactive) | > 100 µM (inactive) | > 100 µM (inactive) | > 100 µM (inactive) |  |
| CCCCn1c(CSc2ccc(Cl)cc2)c(C(=O)OCC)c2cc(OC)c(Br)cc21 | > 100 µM (inactive) | > 100 µM (inactive) | > 100 µM (inactive) | > 100 µM (inactive) | > 100 µM (inactive) | > 100 µM (inactive) | > 100 µM (inactive) | > 100 µM (inactive) | > 100 µM (inactive) | > 100 µM (inactive) | > 100 µM (inactive) | > 100 µM (inactive) |  | > 100 µM (inactive) | > 100 µM (inactive) | > 100 µM (inactive) | > 100 µM (inactive) | > 100 µM (inactive) | > 100 µM (inactive) |  |
| Cn1c(=O)cc(NCc2ccc(Cl)cc2)[nH]c1=O | 99.5 µM (inactive) | > 100 µM (inactive) | 24 µM (inactive) | 40.3 µM (inactive) | > 100 µM (inactive) | 43.3 µM (inactive) | > 100 µM (inactive) | > 100 µM (inactive) | > 100 µM (inactive) | > 100 µM (inactive) |  | 30.8 µM (inactive) | 32.4 µM (inactive) | > 100 µM (inactive) | > 100 µM (inactive) | 51.5 µM (inactive) | 30.3 µM (inactive) |  | 72.9 µM (inactive) | 31.9 µM (inactive) |
| Cc1ccc(S(=O)(=O)NC(=O)NC(Cc2ccc(O)cc2)C(=O)O)cc1 (stereo not given) |  | > 100 µM (inactive) | > 100 µM (inactive) | > 100 µM (inactive) | > 100 µM (inactive) | > 100 µM (inactive) | > 100 µM (inactive) |  | > 100 µM (inactive) | > 100 µM (inactive) | > 100 µM (inactive) |  | > 100 µM (inactive) | > 100 µM (inactive) | > 100 µM (inactive) | > 100 µM (inactive) | > 100 µM (inactive) | > 100 µM (inactive) | > 100 µM (inactive) |  |
| COc1ccc2c(c1)O[C@@H]1[C@@H](OC3OC(CO)C(O)C(O)C3O)Oc3cc(OC)c(OC)cc3[C@]1(O)C2=O (stereo not given in full) | > 100 µM (inactive) | > 100 µM (inactive) | > 100 µM (inactive) | > 100 µM (inactive) | > 100 µM (inactive) | > 100 µM (inactive) | > 100 µM (inactive) | > 100 µM (inactive) | > 100 µM (inactive) | 17.5 µM (inactive) | 1.11 µM (active) | > 100 µM (inactive) | > 100 µM (inactive) | > 100 µM (inactive) | 25.8 µM (inactive) | > 100 µM (inactive) | > 100 µM (inactive) | > 100 µM (inactive) | > 100 µM (inactive) |  |
| CC(C)(C)/C(O)=C\c1nc2ccc(C(F)(F)F)cc2[nH]c1=O |  | > 100 µM (inactive) | > 100 µM (inactive) | > 100 µM (inactive) | > 100 µM (inactive) | > 100 µM (inactive) | > 100 µM (inactive) | > 100 µM (inactive) | > 100 µM (inactive) | > 100 µM (inactive) |  | > 100 µM (inactive) |  |  | > 100 µM (inactive) | > 100 µM (inactive) | > 100 µM (inactive) | > 100 µM (inactive) | > 100 µM (inactive) |  |
| CN(C)CCCOc1ccc(/C=C2/CCC/C(=C/c3ccc(OCCCN(C)C)cc3)C2=O)cc1 | 1.7 µM (inactive) | 2.31 µM (inactive) | 1.28 µM (inactive) | 0.918 µM (active) | 1.51 µM (inactive) | 2.08 µM (inactive) | 1.32 µM (inactive) | 2.26 µM (inactive) | 1.93 µM (inactive) | 1.77 µM (inactive) | 1.97 µM (inactive) | 1.91 µM (inactive) | 1.6 µM (inactive) | 2.07 µM (inactive) | 1.79 µM (inactive) | 1.79 µM (inactive) | 1.9 µM (inactive) |  |  |  |
| CCN(CC)c1c(-c2c(OC(C)C)c(=O)c2=O)c(=O)n2ccsc2c1OC(C)=O | > 100 µM (inactive) | > 100 µM (inactive) | 5.13 µM (inactive) | > 100 µM (inactive) | > 100 µM (inactive) | > 100 µM (inactive) | > 100 µM (inactive) | > 100 µM (inactive) | > 100 µM (inactive) | > 100 µM (inactive) | 85.3 µM (inactive) | > 100 µM (inactive) |  | > 100 µM (inactive) | > 100 µM (inactive) | > 100 µM (inactive) | > 100 µM (inactive) | > 100 µM (inactive) | > 100 µM (inactive) |  |
| O=c1c(C(c2ccc(-c3ccccc3)cc2)c2c(O)oc3ccccc3c2=O)c(O)oc2ccccc12 | 15.6 µM (inactive) | 35.1 µM (inactive) | 24.5 µM (inactive) | 44.8 µM (inactive) | 19.1 µM (inactive) | 30.5 µM (inactive) | 19.6 µM (inactive) | 24.3 µM (inactive) |  | 16.4 µM (inactive) | 23.2 µM (inactive) | 19.3 µM (inactive) |  | 18.9 µM (inactive) | 16.3 µM (inactive) | 17.7 µM (inactive) |  | 59.8 µM (inactive) | 21.6 µM (inactive) |  |
